The test concerns the target 11β-HSD1 (Homo sapiens, UniProt P28845). Briefly: biochemical. To be noted: for pIC50: IC50 Range, Biological Test Example 1, microsomes from CHO cells overexpressing human 11β-HSD1; for inhibition at 0.1 µM: read-out: Average % inhibition at 100 nM, Biological Test Example 1, 100 nM compound.
[1] abbreviates: read-out: Average % inhibition at 111.1 nM, Biological Test Example 1, 111.1 nM compound.

pIC50: −log10 of the molar value. Like-named read-outs stand apart in the source and are kept apart here.

Chain of 11β-HSD1 (P28845 whole entry): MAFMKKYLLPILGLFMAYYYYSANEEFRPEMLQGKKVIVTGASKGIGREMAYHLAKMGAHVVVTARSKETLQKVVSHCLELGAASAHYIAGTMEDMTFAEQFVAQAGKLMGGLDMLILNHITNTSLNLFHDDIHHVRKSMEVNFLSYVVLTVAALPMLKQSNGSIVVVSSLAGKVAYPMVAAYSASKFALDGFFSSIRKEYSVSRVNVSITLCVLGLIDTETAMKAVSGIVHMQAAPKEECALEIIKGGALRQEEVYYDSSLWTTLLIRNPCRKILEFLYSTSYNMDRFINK

The pIC50 is the negative decadic logarithm of the IC50, by convention in mol/L. A high value points to a low IC50. A word on the inhibition: it is the drop in the measured response relative to a control, in per cent. `CC1(c2ccccc2)CCN(c2nccc(-c3ccc(F)cc3)n2)C(=O)O1` (stereo not shown) [EXAMPLE 61, 3-(4-(4-fluorophenyl)pyrimidin-2-yl)-6-methyl-6-phenyl-1,3-oxazinan-2-one]: the pIC50 is 6.00 to 7.00. Further, the inhibition at 0.1111 µM under setting [1] came to 17.7%.

`CC1(c2ccccc2)CCN(c2nccc(-c3cccc(F)c3)n2)C(=O)O1` (stereo not shown) [EXAMPLE 62, 3-(4-(3-fluorophenyl)pyrimidin-2-yl)-6-methyl-6-phenyl-1,3-oxazinan-2-one] showed a pIC50 of 6.00 to 7.00. Also, the inhibition at 0.1111 µM under setting [1] is 20.5%.

As for `C=CCC1(c2ccccc2)CCN(c2cccc(Br)c2)C(=O)O1` (stereo not shown) [EXAMPLE 63, 6-allyl-3-(3-bromophenyl)-6-phenyl-1,3-oxazinan-2-one], the pIC50 is > 7.00. For the same molecule, the inhibition at 0.1111 µM under setting [1] amounted to 59%.

Consider `O=C1OC(CCO)(c2ccccc2F)CCN1c1ccc(F)c(-c2ccc(F)cc2)c1` (stereo not shown) [EXAMPLE 67, 3-(4′,6-difluorobiphenyl-3-yl)-6-(2-fluorophenyl)-6-(2-hydroxyethyl)-1,3-oxazinan-2-one], for which the pIC50 is > 7.00 and the inhibition at 0.1 µM turned out to be 93.1%. In addition, the inhibition at 0.1111 µM under setting [1] was determined as 96.6%.

As for `O=C1OC(CCO)(c2ccccc2)CCN1c1cccc(-c2ccc(F)cc2Cl)c1` (stereo not shown) [EXAMPLE 68, 3-(2′-chloro-4′-fluorobiphenyl-3-yl)-6-(2-hydroxyethyl)-6-phenyl-1,3-oxazinan-2-one], the pIC50 was > 7.00 and the inhibition at 0.1 µM stood at 92%. The inhibition at 0.1111 µM under setting [1] amounted to 92.9%.

Regarding `O=C1OC(CCO)(c2ccccc2)CCN1c1cccc(-c2c(Cl)cccc2Cl)c1` (stereo not shown) [EXAMPLE 69, 3-(2′,6′-dichlorobiphenyl-3-yl)-6-(2-hydroxyethyl)-6-phenyl-1,3-oxazinan-2-one], the pIC50 is > 7.00 and the inhibition at 0.1 µM came to 94.7%. Also, under setting [1], the inhibition at 0.1111 µM worked out at 94.8%.

Take `O=C(O)CC1(c2ccccc2)CCN(c2cccc(-c3ccc(F)cc3F)c2)C(=O)O1` (stereo not shown) [EXAMPLE 70, 2-(3-(2′,4′-difluorobiphenyl-3-yl)-2-oxo-6-phenyl-1,3-oxazinan-6-yl)acetic acid]: the pIC50 was 6.00 to 7.00. Also, the inhibition at 0.1111 µM under setting [1] turned out to be 9.3%.

For the molecule `CC1(c2ccccc2)CCN(Cc2cccc(Br)c2)C(=O)O1` (stereo not shown) [EXAMPLE 71, 3-(3-bromobenzyl)-6-methyl-6-phenyl-1,3-oxazinan-2-one], the pIC50 was 6.00 to 7.00.

As for `CC1(c2ccccc2)CCN(Cc2ccccc2Br)C(=O)O1` (stereo not shown) [EXAMPLE 72, 3-(2-bromobenzyl)-6-methyl-6-phenyl-1,3-oxazinan-2-one], the pIC50 is > 7.00. Moreover, the inhibition at 0.1111 µM under setting [1] came out at 77.5%.

With `O=C1OC(CCO)(c2ccccc2)CCN1c1cccc(Br)c1` (stereo not shown) [EXAMPLE 74, 3-(3-bromophenyl)-6-(2-hydroxyethyl)-6-phenyl-1,3-oxazinan-2-one], the pIC50 was > 7.00. Further, the inhibition at 0.1111 µM under setting [1] is 70%.

Take `NCCC1(c2ccccc2)CCN(c2cccc(-c3ccc(F)cc3F)c2)C(=O)O1` (stereo not shown) [EXAMPLE 75, 6-(2-aminoethyl)-3-(2′,4′-difluorobiphenyl-3-yl)-6-phenyl-1,3-oxazinan-2-one]: the negative logarithm of the IC50 (pIC50) is > 7.00. Under setting [1], the inhibition at 0.1111 µM is 57.8%.

With `NC(=O)CC1(c2ccccc2)CCN(c2cccc(-c3ccc(F)cc3F)c2)C(=O)O1` (stereo not shown) [EXAMPLE 76, 2-(3-(2′,4′-difluorobiphenyl-3-yl)-2-oxo-6-phenyl-1,3-oxazinan-6-yl)acetamide], the pIC50 was > 7.00 and the inhibition at 0.1 µM was 81%.

As for `O=C1OC(CC(O)CO)(c2ccccc2)CCN1c1cccc(-c2ccc(F)cc2F)c1` (stereo not shown) [EXAMPLE 77, 3-(2′,4′-difluorobiphenyl-3-yl)-6-(2,3-dihydroxypropyl)-6-phenyl-1,3-oxazinan-2-one], the pIC50 was > 7.00 and the inhibition at 0.1 µM was 88.7%. Besides, under setting [1], the inhibition at 0.1111 µM turned out to be 89.2%.

Take `CC1(c2cccc(Cl)c2)CCN(c2cccc(-c3ccccc3)c2)C(=O)O1` (stereo not shown) [EXAMPLE 79, 3-(biphenyl-3-yl)-6-(3-chlorophenyl)-6-methyl-1,3-oxazinan-2-one]: the pIC50 was > 7.00. Under setting [1], the inhibition at 0.1111 µM was 75.3%.

For `CC1(c2ccccn2)CCN(c2cccc(-c3ccc(F)cc3F)c2)C(=O)O1` (stereo not shown) [EXAMPLE 80, 3-(2′,4′-difluorobiphenyl-3-yl)-6-methyl-6-(pyridin-2-yl)-1,3-oxazinan-2-one], the pIC50 is > 7.00. The inhibition at 0.1111 µM (read-out: Average % inhibition at 111.1 nM) was 77.8%.

On to `CC1(c2ccccc2)CCN(c2cccc(Oc3ccccc3)c2)C(=O)O1` (stereo not shown) [EXAMPLE 81, 6-methyl-3-(3-phenoxyphenyl)-6-phenyl-1,3-oxazinan-2-one], for which the pIC50 was > 7.00. For the same molecule, under setting [1], the inhibition at 0.1111 µM stood at 72.2%.

`COc1cccc([C@H](C)N2CCC(C)(c3ccccc3)OC2=O)c1` (stereo partly drawn) [EXAMPLE 84, 3-((S)-1-(3-methoxyphenyl)ethyl)-6-methyl-6-phenyl-1,3-oxazinan-2-one]: the pIC50 was > 7.00. In addition, the inhibition at 0.1111 µM under setting [1] was determined as 94.6%.

Take `COc1ccc([C@H](C)N2CCC(C)(c3ccccc3)OC2=O)cc1` (stereo partly drawn) [EXAMPLE 85, 3-((S)-1-(4-methoxyphenyl)ethyl)-6-methyl-6-phenyl-1,3-oxazinan-2-one]: the pIC50 is > 7.00. Moreover, the inhibition at 0.1111 µM under setting [1] came to 102%.

Turning to `Cc1ccccc1C1(C)CCN([C@@H](C)c2ccccc2)C(=O)O1` (stereo partly drawn) [EXAMPLE 86, 6-methyl-3-((S)-1-phenylethyl)-6-o-tolyl-1,3-oxazinan-2-one], the pIC50 was > 7.00. The inhibition at 0.1111 µM under setting [1] is 85.7%.

Take `Cc1cccc(C2(C)CCN([C@@H](C)c3ccccc3)C(=O)O2)c1` (stereo partly drawn) [EXAMPLE 87, 6-methyl-3-((S)-1-phenylethyl)-6-m-tolyl-1,3-oxazinan-2-one]: the negative-log IC50 (pIC50) is > 7.00.

Turning to `Cc1ccc(C2(C)CCN([C@@H](C)c3ccccc3)C(=O)O2)cc1` (stereo partly drawn) [EXAMPLE 88, 6-methyl-3-((S)-1-phenylethyl)-6-p-tolyl-1,3-oxazinan-2-one], the pIC50 is > 7.00. In addition, the inhibition at 0.1111 µM under setting [1] stood at 97.1%.

Turning to `C[C@@H](c1cccc(O)c1)N1CCC(C)(c2ccccc2)OC1=O` (stereo partly drawn) [EXAMPLE 89, 3-((S)-1-(3-hydroxyphenyl)ethyl)-6-methyl-6-phenyl-1,3-oxazinan-2-one], the pIC50 is > 7.00. Under setting [1], the inhibition at 0.1111 µM turned out to be 71.4%.

In the case of `CSc1ccc(C2(C)CCN([C@@H](C)c3ccccc3)C(=O)O2)cc1` (stereo partly drawn) [EXAMPLE 90, 6-methyl-6-(4-(methylthio)phenyl)-3-((S)-1-phenylethyl)-1,3-oxazinan-2-one], the pIC50 is > 7.00. Moreover, under setting [1], the inhibition at 0.1111 µM turned out to be 83.1%.

The molecule `CCOC(=O)COc1cccc([C@H](C)N2CCC(C)(c3ccccc3)OC2=O)c1` (stereo partly drawn) [EXAMPLE 91, ethyl 2-(3-((1S)-1-(6-methyl-2-oxo-6-phenyl-1,3-oxazinan-3-yl)ethyl)phenoxy)acetate] gave a negative logarithm of the IC50 (pIC50) of 6.00 to 7.00. Further, the inhibition at 0.1111 µM under setting [1] came to 39.8%.

Molecule `C[C@@H](c1ccccc1)N1CCC(C)(c2ccc(CN3CCOCC3)cc2)OC1=O` (stereo partly drawn) [EXAMPLE 92, 6-methyl-6-(4-(morpholinomethyl)phenyl)-3-((S)-1-phenylethyl)-1,3-oxazinan-2-one] had a negative logarithm of the IC50 (pIC50) of 6.00 to 7.00. Moreover, the inhibition at 0.1111 µM under setting [1] worked out at 35%.

For the molecule `C=CCC1(c2ccc(F)cc2)CCN([C@@H](C)c2ccccc2)C(=O)O1` (stereo partly drawn) [EXAMPLE 95, 6-allyl-6-(4-fluorophenyl)-3-((S)-1-phenylethyl)-1,3-oxazinan-2-one], the pIC50 was > 7.00. In addition, the inhibition at 0.1111 µM under setting [1] was 97.3%.

For the molecule `O=C1OC(CCO)(c2ccccc2)CCN1c1ccc(F)c(-c2ccc(F)cc2)c1` (stereo not shown) [EXAMPLE 96, 3-(4′,6-difluorobiphenyl-3-yl)-6-(2-hydroxyethyl)-6-phenyl-1,3-oxazinan-2-one], the pIC50 was > 7.00. Besides, the inhibition at 0.1111 µM under setting [1] was 91.9%.

Turning to `CC(=O)NCCC1(c2ccccc2)CCN(c2cccc(-c3ccc(F)cc3F)c2)C(=O)O1` (stereo not shown) [EXAMPLE 98, N-(2-(3-(2′,4′-difluorobiphenyl-3-yl)-2-oxo-6-phenyl-1,3-oxazinan-6-yl)ethyl)acetamide], the pIC50 was > 7.00. In addition, the inhibition at 0.1111 µM under setting [1] was 73.4%.

As to `CS(=O)(=O)NCCC1(c2ccccc2)CCN(c2cccc(-c3ccc(F)cc3F)c2)C(=O)O1` (stereo not shown) [EXAMPLE 99, N-(2-(3-(2′,4′-difluorobiphenyl-3-yl)-2-oxo-6-phenyl-1,3-oxazinan-6-yl)ethyl)methanesulfonamide], the pIC50 is > 7.00. In addition, the inhibition at 0.1111 µM under setting [1] worked out at 75.3%.

On to `O=C1OC(CCO)(c2ccc(F)cc2)CCN1c1ccc(F)c(-c2ccc(F)cc2Cl)c1` (stereo not shown) [EXAMPLE 100, 3-(2′-chloro-4′,6-difluorobiphenyl-3-yl)-6-(4-fluorophenyl)-6-(2-hydroxyethyl)-1,3-oxazinan-2-one], for which the pIC50 is > 7.00. The inhibition at 0.1111 µM under setting [1] was found to be 93.7%.

For `O=C1OC(CCO)(c2ccccc2)CCN1c1ccc(F)c(-c2ccc(F)cc2Cl)c1` (stereo not shown) [EXAMPLE 101, 3-(2′-chloro-4′,6-difluorobiphenyl-3-yl)-6-(2-hydroxyethyl)-6-phenyl-1,3-oxazinan-2-one], the pIC50 was > 7.00. For the same molecule, the inhibition at 0.1111 µM under setting [1] was 84.4%.

In the case of `O=C1OC(CCO)(c2ccc(F)cc2)CCN1c1cccc(-c2ccc(F)cc2)n1` (stereo not shown) [EXAMPLE 103, 6-(4-fluorophenyl)-3-(6-(4-fluorophenyl)pyridin-2-yl)-6-(2-hydroxyethyl)-1,3-oxazinan-2-one], the pIC50 was > 7.00. The inhibition at 0.1111 µM under setting [1] was 86.9%.

With `O=C1OC(CCO)(c2ccccc2F)CCN1c1cccc(-c2ccc(F)cc2)n1` (stereo not shown) [EXAMPLE 104, 6-(2-fluorophenyl)-3-(6-(4-fluorophenyl)pyridin-2-yl)-6-(2-hydroxyethyl)-1,3-oxazinan-2-one], the pIC50 was > 7.00. In addition, the inhibition at 0.1111 µM under setting [1] was found to be 85.7%.

For the molecule `O=C1OC(CCO)(c2ccc(F)cc2)CCN1c1ccc(F)c(-c2ccc(F)cc2F)c1` (stereo not shown) [EXAMPLE 105, 6-(4-fluorophenyl)-6-(2-hydroxyethyl)-3-(2′,4′,6-trifluorobiphenyl-3-yl)-1,3-oxazinan-2-one], the pIC50 is > 7.00. For the same molecule, the inhibition at 0.1111 µM under setting [1] worked out at 87.4%.

For the origin of these results see patent US8575156B2, “Cyclic inhibitors of 11β-hydroxysteroid dehydrogenase 1” (Vitae Pharmaceuticals, Inc., priority 2007, dated 2013).
